Test results: publication PMC5369524 (Chemical Science, 2016)

What was measured:
HIV = settings: ref [55]; cited from earlier work
[1] = molecular target: full NCp7 zinc finger peptide (Human immunodeficiency virus type 1 group M subtype B, UniProt P12493); settings: positive band centered at 210–220 nm
[2] = molecular target: C-terminal ZF2 of HIV1NCp7 (Human immunodeficiency virus type 1 group M subtype B, UniProt P12493); settings: figures in parentheses of Table 1
full NCp7 peptide = full NCp7 peptide (Human immunodeficiency virus type 1 group M subtype B, UniProt P12493)

Effect on CD spectrum / tertiary structure of NCp7 [1]	K a, association with C-terminal ZF2 of HIV1NCp7 [2]	K a, association with full NCp7 peptide (full NCp7 peptide; figures in bold parentheses of Table 1)	K a, association constant with full NCp7 peptide (full NCp7 peptide; fluorescence quenching)	SMILES	Anti-HIV activity (HIV)
				CCn1cnc2c(=O)[nH]c(N)nc21.N.[Cl][Pt+].c1ccc2ncccc2c1 [SP-4-2-[PtCl(NH3)(9-EtGua)(quinoline)]^+]	modest anti-HIV activity
no major disruption of the peptide	(13.10 ± 0.94) ×10^3 M^–1	(20 ± 0.08) ×10^3 M^–1	2.0 × 10^4 M^–1	CCn1cnc2c(=O)[nH]c(N)nc21.NCCNCCN.[Pt+2] [[Pt(dien)(9-EtGua)]^2+]	
